Laboratory results reported in paper PMC10914731, “Homo-BacPROTAC-induced degradation of ClpC1 as a strategy against drug-resistant mycobacteria” (Nature Communications, 2024).
Where “and” joins values, the source holds several entries; their conditions need not be identical. Equal values may be shown once. Read-outs that look alike come from different tables or passages of the source.

Legend:
[1] = system: Mtb H37Rv in THP-1 macrophages; assay: Intracellular MIC assay in THP-1 macrophages; assay type: cell-based, Mycobacterium tuberculosis; set-up: Emax: unit not given here
Pseudomonas aeruginosa = assay: MIC ESKAPES panel, Pseudomonas aeruginosa; assay type: cell-based
Procedure: Minimum inhibitory concentration (MIC) against ESKAPES panel of Gram positive and Gram negative pathogens (Enterococcus faecium, Staphylococcus aureus, Klebsiella pneumoniae, Acinetobacter baumannii, Pseudomonas aeruginosa, Enterobacter cloacae and Salmonella typhimurium [ESKAPES panel]) were determined at the FNDR by the standard broth dilution method [CLSI, M100]. […] Mueller Hinton broth (MHB) medium was used to grow ESKAPES panel strains. The individual cultures were added as 200 μL (inoculum of 3–7 × 10^5 cfu/ml) to the respective assay plates in each well to all columns, except the media control (200 μL of medium). […] The assay plates were incubated at 37 °C, and the results were noted on the 2nd day as turbidometric readout. The clear wells indicated inhibition of growth, while the turbid wells indicated uninhibited growth.

Mtb # 8673 = assay: microbe, parasite or virus in culture; assay type: cell-based
Mycobacterium abscessus = assay: microbe, parasite or virus in culture; assay type: cell-based
in vivo = assay type: in vivo, BALB/cAnNCrl mice; conditions: for Plasma concentration 6 h / Plasma concentration 24 h / AUC0-inf/Dose / AUC0-t/Dose / CL / CL PL QH / Cmax/Dose / MRT / Plasma concentration 0.1 h / Plasma concentration 0.5 h / Plasma concentration 1 h / Plasma concentration 2 h / Plasma concentration 4 h / Vss / t1/2: iv bolus; for Plasma concentration 6 h / Plasma concentration 24 h: BLOQ <1.00 nmol/l
Procedure: The in-life experimental procedures were conducted in strict compliance with German and European animal welfare legislation in an AAALAC-accredited facility. Male BALB/cAnNCrl mice (Charles River Laboratories Research Models and Services, 97633 Sulzfeld, Germany) were used. Animals were 9 weeks old at dosing with a body weight of 21.6–24.3 g. Animals were delivered free of pathogens according to FELASA recommendations with a health certificate provided by the breeder. Upon receipt, the state of health and sex was checked. Animals acclimatized for at least 5 days before the commencement of the in-life phase. During acclimation, animals were group-housed in individually ventilated cages, on birch wood granulate bedding with species-specific enrichment (nesting material, mouse igloo, gnawing wood). During experimental conduct, animals were housed in conventional cages with elevated grid floors. Grid floor was used to avoid contamination with test item material excreted via urine and feces and subsequent reuptake during fur grooming. No bedding and enrichment were provided except a cage divider, which can be used as a shelter. Animals always had unlimited access to food and water and received a pelleted, total pathogen-free maintenance diet and tap drinking water, sterilized by filter.
In case of incomplete dissolution, the formulation was filtered at 40 °C (non-pyrogenic sterile-R filter, 0.2 µm). All formulations were stirred warm until administration. Actual test item content was determined bioanalytically.
Male BALB/cAnNCrl mice (n = 3 per test item and administration route) received a bolus dose of the formulated test item(s) (1 mg/kg iv, 30 mg/kg po) at t = 0 h, and whole blood samples were collected subsequently (35 µl at 0.1 (iv) / 0.25 (po), 0.5, 1, 2, 4, 6 h; 600 µl at sacrifice after 24 h). Animals were euthanized by exsanguination in deep isoflurane anesthesia. Whole blood samples were immediately stored on ice at about 4 °C. Plasma was separated by centrifugation at approximately 10,000 × g for 5 m at +4 °C. Centrifugation of each blood sample was started within 10 m after collection. A single aliquot of at least 15 µL of plasma was prepared and immediately stored at −20 ± 5 °C.
Sample proteins were precipitated with ACN (1 + 12, v/v) containing internal standard, and supernatants analyzed by quantitative UPLC-MS/MS: Phenomenex Luna Omega C18, 2.1 × 50 mm, 1.6 µm, 40 °C, gradient between 10% - 90% ACN with 0.1% formic acid. LogD determination: Lipophilicity of the test items, expressed as chromLogD7.5, was assessed by measuring their chromatographic retention times on C18-material. The chromatographic retention versus logD7.5 values of a series of thirteen n-alkan-2-ones (2-butanone – 2-hexadecanone) served as lipophilicity calibration.

[2] = Microsomal stability, human; assay type: in vitro ADME
Summary of the method: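 Steps: incubate compound at 1 µmol/l with liver microsomes (0.5 mg/ml) plus 1 mM NADPH in pH 7.5 Tris-HCl buffer containing MgCl2 at 37 °C; stop aliquots over time with acetonitrile; centrifuge and measure remaining compound by LC-MS/MS; fit first-order decay and convert half-life to %Qh.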

[3] = system: non-replicating cells of Mtb H37Rv; assay type: cell-based, Mycobacterium tuberculosis; conditions: for Supplementary Figure 2 dose-response value, starvation-induced non-replicating H37Rv cells: three replicate columns
[4] = single well replicates, listed as 8 (UdSBAI-0545)
[5] = dose-normalized, mice, 1 mg kg-1 iv bolus
[6] = individual animals 1-3, listed as 8 (UdSBI-0545)

Q: What does the source list for COC(c1ccccc1)C1NC(=O)C(C)NC(=O)C(CC(C)CO)N(C)C(=O)C(Cc2cn(Cc3cn(CCOCCOCCOCCOCCn4cc(Cn5cc(CC6NC(=O)C(C(C)C)NC(=O)C(CC(C)C)N(C)C(=O)C(C(C)C)NC(=O)C(C(OC)c7ccccc7)NC(=O)C(C)NC(=O)C(CC(C)CO)N(C)C6=O)c6ccccc65)nn4)nn3)c3ccccc23)NC(=O)C(C(C)C)NC(=O)C(CC(C)C)N(C)C(=O)C(C(C)C)NC1=O (stereo not shown) [Compound 8]?
A: Emax [1]: 1.27; intracellular viable mycobacteria ([1]; 0.19µM, Day 4, well replicates): 5.45 log10 cfu/ml; intracellular viable mycobacteria ([1]; 0.19µM, Day 7, well replicates): 5.56 log10 cfu/ml; intracellular viable mycobacteria ([1]; 0.781µM, Day 4, well replicates): 4.88 log10 cfu/ml; intracellular viable mycobacteria ([1]; 0.781µM, Day 7, well replicates): 4.81 log10 cfu/ml; intracellular viable mycobacteria ([1]; 3.125µM, Day 4, well replicates): 4.56 log10 cfu/ml; intracellular viable mycobacteria ([1]; 3.125µM, Day 7, well replicates): 4.31 log10 cfu/ml and 4.3 log10 cfu/ml; intracellular viable mycobacteria ([1]; 50µM, Day 4, well replicates): 4.3 log10 cfu/ml; intracellular viable mycobacteria ([1]; 50µM, Day 7, well replicates): 3.92 log10 cfu/ml and 3.9 log10 cfu/ml; MIC (Pseudomonas aeruginosa; Gram-Negative Bacteria, replicates 1-3, listed as 8 (UdSBI-0545)): >50 µM; MIC (Pseudomonas aeruginosa; Pseudomonas aeruginosa, Gram negative, n = 3 well replicates): > 50 µM; MIC (Pseudomonas aeruginosa; Pseudomonas aeruginosa, Gram-Negative Bacteria, replicates 1-3): > 109 µg/mL; MIC (Mtb # 8673; Mycobacterium tuberculosis, mean, n = 2 well replicates): < 0.1 µM and < 0.2 µg/mL; MIC (Mtb # 8673; Mycobacterium tuberculosis, single well replicates): < 0.1 µM and < 0.21 µg/mL; MIC (Mtb # 8673; [4]): <0.1 µM; MIC Mtb # 8673 (Mtb # 8673; [4]): <0.21 µg/mL; MIC (µg/ml) Mycobacterium abscessus (Mycobacterium abscessus; Experiment 2, three replicate columns): >108.53 µg/mL; MIC (Mycobacterium abscessus; Experiment 2, three replicate columns, read-out: MIC (µM) Mycobacterium abscessus): >50 µM; MIC (Mycobacterium abscessus; Mycobacteroides abscessus, Experiment 1, read-out: MIC Mycobacterium abscessus): > 50 µM and > 109 µg/mL; MIC (Mycobacterium abscessus; Mycobacteroides abscessus, Experiment 2, three replicate columns, read-out: MIC (µM) Mycobacterium abscessus): > 50 µM; MIC (Mycobacterium abscessus; Mycobacteroides abscessus, Experiment 2, three replicate columns, read-out: MIC (µg/ml) Mycobacterium abscessus): > 109 µg/mL; MIC (Mycobacterium abscessus; Mycobacteroides abscessus, mean ± SD, read-out: MIC Mycobacterium abscessus): > 50 µM; AUC (in vivo; [5]): 8580 h nM/(nmol kg-1); Cmax (in vivo; [5]): 6710 nM/(nmol kg-1); Plasma concentration 6 h (in vivo; [6]): 90.8 nM and 118 nM and 77.8 nM; Plasma concentration 24 h (in vivo; [6]): 14.8 nM and 18.2 nM and 13.3 nM; AUC0-inf/Dose (in vivo; [6]): 7860 h nM/(nmol kg-1) and 10400 h nM/(nmol kg-1) and 8420 h nM/(nmol kg-1); AUC0-t/Dose (in vivo; [6]): 7540 h nM/(nmol kg-1) and 10000 h nM/(nmol kg-1) and 8140 h nM/(nmol kg-1); CL (in vivo; [6]): 2.1 mL/min/kg and 1.6 mL/min/kg and 2.0 mL/min/kg; CL PL QH (in vivo; [6]): 2.4% and 1.8% and 2.2%; Cmax/Dose (in vivo; [6]): 5300 nM/(nmol kg-1) and 7400 nM/(nmol kg-1) and 7420 nM/(nmol kg-1); MRT (in vivo; [6]): 4.5 h and 4.3 h and 3.8 h; Plasma concentration 0.1 h (in vivo; [6]): 2440 nM and 3410 nM and 3420 nM; Plasma concentration 0.5 h (in vivo; [6]): 1650 nM and 1900 nM and 1850 nM; Plasma concentration 1 h (in vivo; [6]): 655 nM and 1140 nM and 855 nM; Plasma concentration 2 h (in vivo; [6]): 328 nM and 402 nM and 307 nM; Plasma concentration 4 h (in vivo; [6]): 110 nM and 144 nM and 117 nM; Vss (in vivo; [6]): 0.6 L/kg and 0.4 L/kg and 0.5 L/kg; t1/2 (in vivo; [6]): 6.9 h and 6.7 h and 6.6 h; AUC0-inf/Dose (in vivo; mice, Mean): 8900 h nM/(nmol kg-1); AUC0-t/Dose (in vivo; mice, Mean): 8580 h nM/(nmol kg-1); CL (in vivo; mice, Mean): 1.9 mL/min/kg; CL PL QH (in vivo; mice, Mean): 2.1%; Cmax/Dose (in vivo; mice, Mean): 6710 nM/(nmol kg-1); MRT (in vivo; mice, Mean): 4.2 h; Plasma concentration 0.1 h (in vivo; mice, Mean): 3090 nM; Plasma concentration 0.5 h (in vivo; mice, Mean): 1800 nM; Plasma concentration 1 h (in vivo; mice, Mean): 883 nM; Plasma concentration 2 h (in vivo; mice, Mean): 346 nM; Plasma concentration 4 h (in vivo; mice, Mean): 124 nM; Vss (in vivo; mice, Mean): 0.5 L/kg; t1/2 (in vivo; mice, Mean): 6.7 h; Plasma concentration 6 h (in vivo; mice, Mean): 95.5 nM; Plasma concentration 24 h (in vivo; mice, Mean): 15.4 nM; VSS (in vivo; mice, 1 mg kg-1 iv bolus): 0.48 L/kg; Cl (in vivo; plasma clearance, mice, 1 mg kg-1 iv bolus): 1.90 mL/min/kg; T1/2 (in vivo; plasma, mice, 1 mg kg-1 iv bolus): 6.74 h; Microsomal Stability Human QH ([2]; Human): >88.4 >88.4 >88.4%; Microsomal Stability Human ([2]; clearance in microsomes): > 88 %Qh; Supplementary Figure 2 dose-response value, starvation-induced non-replicating H37Rv cells ([3]; Conc. 0.0488281 µM): 101.903 and 93.5529 and 95.5846; Supplementary Figure 2 dose-response value, starvation-induced non-replicating H37Rv cells ([3]; Conc. 0.195312 µM): 93.6246 and 84.7332 and 86.7409; Supplementary Figure 2 dose-response value, starvation-induced non-replicating H37Rv cells ([3]; Conc. 0.390625 µM): 90.2545 and 83.1636 and 86.2868; Supplementary Figure 2 dose-response value, starvation-induced non-replicating H37Rv cells ([3]; Conc. 0.78125 µM): 91.9834 and 86.6134 and 81.2993; Supplementary Figure 2 dose-response value, starvation-induced non-replicating H37Rv cells ([3]; Conc. 1.5625 µM): 90.366 and 86 and 85.5618; Supplementary Figure 2 dose-response value, starvation-induced non-replicating H37Rv cells ([3]; Conc. 3.125 µM): 93.9114 and 69.2927 and 87.5137; Supplementary Figure 2 dose-response value, starvation-induced non-replicating H37Rv cells ([3]; Conc. 6.25 µM): 87.458 and 76.4871 and 82.7732; Supplementary Figure 2 dose-response value, starvation-induced non-replicating H37Rv cells ([3]; Conc. 25 µM): 86.1354 and 89.2267 and 87.4022; Supplementary Figure 2 dose-response value, starvation-induced non-replicating H37Rv cells ([3]; Conc. 50 µM): 91.1707 and 85.8088 and 84.3747; Supplementary Figure 2 dose-response value, starvation-induced non-replicating H37Rv cells ([3]; Conc. 100 µM): 92.3658 and 81.0443 and 90.6608; inhibitory activity on non-growing Mtb H37Rv ([3]; starvation for three weeks, result in words): lost their inhibitory activity
